6 molecules from patent publication US9988632B2, “Composition including pint gene expression inhibitor or pint activity inhibitor and use thereof” (Samsung Electronics Co., Ltd., priority 2015, dated 2018) can be followed below.

Type in all cases: cell-based, human
Data set [1] deals with PINT lincRNA. Kind of data set: PINT lincRNA levels (qPCR) in young cells in the presence of DNA damage inducers. To be noted: 10 μM, 24 hours, level in absence of DNA damage inducers taken as 1. In general terms: Quantitative PCR measures a nucleic acid by following its amplification.
Procedure: PINT lincRNA levels were measured according to DNA damage in cells. The cells were young cells HDF(M4) and HDF(neonatal) derived from humans, explained in section 1.
As a negative control, the cells were treated with dimethyl sulfoxide (DMSO) (Sigma-Aldrich). Thereafter, mRNAs were isolated from all the cells, and then quantitative polymerase chain reaction (qPCR) was performed using nucleotide sequences of SEQ ID NOS: 22 and 24 as PINT primers to measure PINT levels.
Data set [2] relates to PINT. Kind of data set: PINT level (qPCR) after siRNA transfection. As to conditions: HDF(neonatal) cells, 25 nM siRNA, 72 hours, vs scramble siRNA. The text has this: In detail, the young cells were human dermal fibroblast (HDF) (hereinafter, referred to as ‘HDF cell’ or ‘HDF (neonatal)’) obtained from neonatal foreskin, human dermal fibroblast (HDF) M4 cell (hereinafter, referred to as ‘HDF M4 cell’ or ‘HDF (M4)’) obtained from the foreskin of a child, and human mammary epithelial cell (HMEC) (hereinafter, referred to as ‘HMEC cell’ or ‘HMEC’) obtained from ATCC® PCS-600-010™. The young cells for the purposes of the experiments were cells of the above cell lines that were passaged 10 times or less and have a doubling time of about 1 day. The senescent cells were cells of the same cell lines that were passaged 33 to 50 times and have a doubling time of about 14 days or longer. The young cells and senescent cells were inoculated in 6-well plates at a density of 50,000 cells/well and 20,000 cells/well, respectively. The inoculated cells were cultured in 2 ml of a DMEM medium containing 10% (v/v) FBS, and 1× penicillin/streptomycin and high concentrations of glucose, glutamine, and pyruvate under conditions of 37° C. and 5% CO2 for 3 days.
mRNAs were isolated from all the cells thus prepared, and then quantitative polymerase chain reaction (qPCR) was performed using nucleotide sequences of SEQ ID NOS: 22 and 23 as PINT primers to measure PINT levels.
To inhibit PINT gene expression and/or PINT activity, the following 5 siRNAs including sequences complementary to PINT gene of SEQ ID NO: 1 were designed and synthesized (Cosmogenetech, Korea).
The siRNAs includes nucleotide sequences of SEQ ID NO: 12 and SEQ ID NO: 13; SEQ ID NO: 14 and SEQ ID NO: 15; SEQ ID NO: 16 and SEQ ID NO: 17; SEQ ID NO: 18 and SEQ ID NO: 19; and SEQ ID NO: 20 and SEQ ID NO: 21, respectively and hereinbelow, these siRNAs are called siPINT-1, siPINT-2, siPINT-3, siPINT-4, and siPINT-5, respectively.
It was examined whether the siRNAs decrease PINT levels in senescent cells. First, HDF(neonatal) young cells being passaged 9 times and having a doubling time of 1 day and HDF(neonatal) senescent cells being passaged 49 times and having a doubling time of 14 days, which were prepared in section 1, were transfected with 25 nM siRNA. The cells were cultured for 72 hours under the same conditions as in section 1, except that each siRNA was mixed with 1 μL of a Dharmacon transfection reagent (Dharmacon), and added to media. A negative control group was prepared in the same manner, except that scramble siRNA was added instead of the siRNAs. After culturing, PINT levels in the cells were measured in the same manner as in section 1. As a result, when siPINT-1, siPINT-2, siPINT-3, siPINT-4, and siPINT-5 were used, the PINT levels were decreased by 36, 0, 67, 50, and 0%, respectively, as compared to the control group.

Data set [3] has as its system HDF(neonatal) senescent cells. The data set is described as follows: Immunoblotting of phosphorylated H2AX (gamma-H2AX) in siRNA-introduced cells. As to conditions: HDF(neonatal) senescent cells vs young cells, 25 nM siRNA, 72 hours. As for the experimental part:
(§1) HDF(neonatal) young cells being passaged 9 times and having a doubling time of 1 day and HDF(neonatal) senescent cells being passaged 49 times and having a doubling time of 14 days, which were prepared in section 1, were cultured for 72 hours under the same conditions as in section 1, except that each 25 nM of siPINT-3 and siPINT-4 was mixed with 1 μL of a Dharmacon transfection reagent (Dharmacon) and added to media. A negative control group was prepared in the same manner, except that scramble siRNA (hereinafter, also called ‘siCTRL’) was added instead of the siRNAs.
After culturing, proteins were isolated from siRNA-introduced cells, and then the isolated proteins were subjected to immunoblotting using anti-GAPDH and anti-phosphorylated-H2AX. H2AX becomes phosphorylated on serine 139 as a reaction on DNA Double-strand breaks (DSB), and is also called gamma-H2AX. Gamma-H2AX is an indicator of DNA damage.
(A western blot detects proteins with antibodies after separation by electrophoresis.)

The test system of data set [4] is HDF(neonatal) senescent cells. The data set is described as follows: DNA comet assay in siRNA-introduced cells. To be noted: 25 nM siRNA, 72 hours; for tail moment: control senescent cells 2.86, young cells 0.52. As for the experimental part: as §1
Further, DNAs were isolated from the same cells, followed by DNA comet assay. This method is performed by detecting DNA strand break in cells, based on gel electrophoresis. […] After staining a slide with SYBR Green, a length of a tail of DNA fragment was measured under a fluorescence microscope to examine DNA damage.

The subject of data set [5] is HDF(neonatal) young and senescent cells. The data set is described as follows: Selective death of senescent cells by inhibition of PINT expression (cell number after culturing). To be noted: siRNA transfection, cultured 14 days. As for the experimental part:
HDF(neonatal) young cells being passaged 9 times and having a doubling time of 1 day and HDF(neonatal) senescent cells being passaged 49 times and having a doubling time of 14 days, which were prepared in section 1, were transfected with each of siPINT-1, siPINT-2, siPINT-3, siPINT-4, and siPINT-5 in the same manner as in section 3.2, and further cultured in wells of 6-well plates for 14 days under the same conditions as in section 1. A negative control group was prepared in the same manner, except that scramble siRNA (hereinafter, also called ‘siCTR’) was added instead of the siRNAs.
In FIG. 5, siCTR represents control siRNA, and siPINT represents siPINT-3 among the five used siPINTs. […] However, there was little change in the number of young cells by inhibition of PINT lincRNA expression.

As for `C[C@@]1(CO)[C@H](O)CC[C@@]2(C)[C@H]1CC[C@H]1C[C@@H]3C[C@@]12CC[C@]3(O)CO` [aphidicolin], the “relative PINT level” value in data set [1] (HDF(M4) young cells) turned out to be 1.95; in data set [1] (HDF(neonatal) young cells), 2.72.

For the molecule “siPINT-1: siRNA complementary to PINT gene, nucleotide sequences of SEQ ID NO: 12 and SEQ ID NO: 13 (chain 1 AAGAAAUACGCAGAACUGAUUCCUG; chain 2 CAGGAAUCAGUUCUGCGUAUUUCUU; listed as RNA, chemistry not given here)”, in data set [2], the “PINT levels decreased as compared to the control group” value (“PINT levels decreased” below) was found to be 36%.

As to “siPINT-2: siRNA complementary to PINT gene, nucleotide sequences of SEQ ID NO: 14 and SEQ ID NO: 15 (chain 1 UGGGAUAAUUUGCCAUCUGGAGUUU; chain 2 AAACUCCAGAUGGCAAAUUAUCCCA; listed as RNA, chemistry not given here)”, the “PINT levels decreased” value in data set [2] was 0%.

Turning to “siPINT-3: siRNA complementary to PINT gene, nucleotide sequences of SEQ ID NO: 16 and SEQ ID NO: 17 (chain 1 AUGUAUCAAAUGCCUGGUUCUAUUU; chain 2 AAAUAGAACCAGGCAUUUGAUACAU; listed as RNA, chemistry not given here)”, in data set [2], the “PINT levels decreased” value was determined as 67%. Besides, the “gamma-H2AX levels (indicator of DNA damage)” value in data set [3] is recorded as “specifically increased”. Besides, in data set [4], the “DNA damage (comet tails, photograph) compared to senescent cells without siPINT introduction” value is on record as “remarkably increased DNA damage” and the tail moment was 3.68. The “number of senescent cells compared to the negative control group” value in data set [5] (HDF(neonatal) senescent cells) is “remarkably decreased”. The “change in the number of young cells” value in data set [5] (HDF(neonatal) young cells) is listed as “little change”.

With “siPINT-4: siRNA complementary to PINT gene, nucleotide sequences of SEQ ID NO: 18 and SEQ ID NO: 19 (chain 1 AAGUAGGAGCCACGAAAUGUCAUUU; chain 2 AAAUGACAUUUCGUGGCUCCUACUU; listed as RNA, chemistry not given here)”, the “PINT levels decreased” value in data set [2] is 50%. For the same molecule, the “gamma-H2AX levels (indicator of DNA damage)” value in data set [3] is reported as “specifically increased”. The same molecule had a tail moment in data set [4] of 5.58.

Turning to “siPINT-5: siRNA complementary to PINT gene, nucleotide sequences of SEQ ID NO: 20 and SEQ ID NO: 21 (chain 1 AGCCAGGAAGAGGGACUGGAACCAU; chain 2 AUGGUUCCAGUCCCUCUUCCUGGCU; listed as RNA, chemistry not given here)”, in data set [2], the “PINT levels decreased” value turned out to be 0%.
